# Source: patent US10457709B2, “Antimicrobial peptides, their variants and uses” (priority 2015, dated 2019)
# Where two headings read alike, the source gives them in different places. Square brackets hold non-standard residues; d marks the D form. Peptide text beside a SMILES is read from it.
# Key:
# [1] = system: Escherichia coli clinical strains; type: cell-based; settings: microdilution, Muller Hinton broth-cation adjusted, 0.02% BSA, 0.2% acetic acid
# Procedure, shortened: (§1)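 MIC recorded as the lowest peptide level, within 0.125–128 μg/ml, that left no visible growth after 20–24 h at 37° C. Inoculum was 5.0×10^5 cfu/ml of clinical isolates. Medium was potato dextrose broth for yeasts and Mueller Hinton broth for bacteria, in a broth microdilution format.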
# [2] = system: Pseudomonas aeruginosa clinical strains; type: cell-based; settings: microdilution, Muller Hinton broth-cation adjusted, 0.02% BSA, 0.2% acetic acid
# Procedure, shortened: as §1
# [3] = system: Klebsiella pneumoniae clinical strains; type: cell-based; settings: microdilution, Muller Hinton broth-cation adjusted, 0.02% BSA, 0.2% acetic acid
# Procedure, shortened: as §1
# [4] = system: Serratia marcescens clinical strains; type: cell-based; design: Minimum inhibitory concentration: unit: μg/ml; settings: microdilution, Muller Hinton broth-cation adjusted, 0.02% BSA, 0.2% acetic acid
# Procedure, shortened: as §1
# [5] = system: Enterobacter cloacae clinical strains; type: cell-based; design: Minimum inhibitory concentration: unit: μg/ml; settings: microdilution, Muller Hinton broth-cation adjusted, 0.02% BSA, 0.2% acetic acid
# Procedure, shortened: as §1
# [6] = system: Streptococcus pneumoniae clinical strains; type: cell-based; design: Minimum inhibitory concentration: unit: μg/ml; settings: microdilution, Muller Hinton broth-cation adjusted, 0.02% BSA, 0.2% acetic acid
# Procedure, shortened: as §1
# [7] = system: Staphylococcus aureus clinical strains; type: cell-based; design: Minimum inhibitory concentration: unit: μg/ml; settings: microdilution, Muller Hinton broth-cation adjusted, 0.02% BSA, 0.2% acetic acid
# Procedure, shortened: as §1
# [8] = system: Proteus mirabilis clinical strains; type: cell-based; design: Minimum inhibitory concentration: unit: μg/ml; settings: microdilution, Muller Hinton broth-cation adjusted, 0.02% BSA, 0.2% acetic acid
# Procedure, shortened: as §1
# [9] = system: C. parapsilosis clinical strains; experiment: MIC, clinical yeast strains; type: cell-based, Candida parapsilosis; design: unit: µg/ml
# Procedure, shortened: as §1
# [10] = system: Candida albicans clinical strains; experiment: MIC, clinical yeast strains; type: cell-based; design: unit: μg/ml
# Procedure, shortened: as §1
# [11] = system: C. quillermondiae clinical strains; experiment: MIC, clinical yeast strains; type: cell-based, Candida quillermondiae; design: unit: μg/ml; settings: C. quillermondiae clinical yeast strain 1
# Procedure, shortened: as §1
# [12] = system: C. glabrata clinical strains; experiment: MIC, clinical yeast strains; type: cell-based, Candida glabrata; design: unit: µg/ml
# Procedure, shortened: as §1
# [13] = Escherichia coli clinical strain 1
# [14] = Escherichia coli clinical strain 2
# [15] = Escherichia coli clinical strain 3
# [16] = Escherichia coli clinical strain 4
# [17] = Escherichia coli clinical strain 5
# [18] = Pseudomonas aeruginosa clinical strain 1
# [19] = Pseudomonas aeruginosa clinical strain 2
# [20] = Pseudomonas aeruginosa clinical strain 3
# [21] = Pseudomonas aeruginosa clinical strain 4
# [22] = Pseudomonas aeruginosa clinical strain 5
# [23] = Klebsiella pneumoniae clinical strain 1
# [24] = Klebsiella pneumoniae clinical strain 2
# [25] = Klebsiella pneumoniae clinical strain 3
# [26] = Klebsiella pneumoniae clinical strain 4
# [27] = Klebsiella pneumoniae clinical strain 5
# [28] = Serratia marcescens clinical strain 1
# [29] = Serratia marcescens clinical strain 2
# [30] = Serratia marcescens clinical strain 3
# [31] = Serratia marcescens clinical strain 4
# [32] = Serratia marcescens clinical strain 5
# [33] = Enterobacter cloacae clinical strain 1
# [34] = Enterobacter cloacae clinical strain 2
# [35] = Enterobacter cloacae clinical strain 3
# [36] = Enterobacter cloacae clinical strain 4
# [37] = Enterobacter cloacae clinical strain 5
# [38] = Streptococcus pneumoniae clinical strain 1
# [39] = Streptococcus pneumoniae clinical strain 2
# [40] = Streptococcus pneumoniae clinical strain 3
# [41] = Streptococcus pneumoniae clinical strain 4
# [42] = Streptococcus pneumoniae clinical strain 5
# [43] = Staphylococcus aureus clinical strain 1
# [44] = Staphylococcus aureus clinical strain 2
# [45] = Staphylococcus aureus clinical strain 3
# [46] = Staphylococcus aureus clinical strain 4
# [47] = Staphylococcus aureus clinical strain 5
# [48] = Proteus mirabilis clinical strain 1
# [49] = Proteus mirabilis clinical strain 2
# [50] = Proteus mirabilis clinical strain 3
# [51] = Proteus mirabilis clinical strain 4
# [52] = Proteus mirabilis clinical strain 5
# [53] = C. parapsilosis clinical yeast strain 1
# [54] = C. parapsilosis clinical yeast strain 2
# [55] = C. parapsilosis clinical yeast strain 3
# [56] = C. parapsilosis clinical yeast strain 4
# [57] = Candida albicans clinical yeast strain 1
# [58] = Candida albicans clinical yeast strain 2
# [59] = Candida albicans clinical yeast strain 3
# [60] = Candida albicans clinical yeast strain 4
# [61] = Candida albicans clinical yeast strain 5
# [62] = C. glabrata clinical yeast strain 1
# [63] = C. glabrata clinical yeast strain 2
# [64] = C. glabrata clinical yeast strain 3
# [65] = C. glabrata clinical yeast strain 4
smiles,measurement,setting,value
CC(C)C[C@@H](NC(=O)[C@H](N)CCCNC(=N)N)C(=O)N[C@H](CCCCN)C(=O)N[C@H](Cc1c[nH]c2ccccc12)C(=O)N[C@H](Cc1ccccc1)C(=O)N[C@H](Cc1c[nH]c2ccccc12)C(=O)N[C@H](CC(C)C)C(=O)N[C@H](Cc1ccccc1)C(=O)N[C@H](CCCNC(=N)N)C(=O)N[C@H](CCCCN)C(=O)N[C@H](CCCNC(=N)N)C(=O)O [Chain307D] (H-[dR][dL][dK][dW][dF][dW][dL][dF][dR][dK][dR]-OH),Minimum inhibitory concentration,[1]; [13],4
same,Minimum inhibitory concentration,[1]; [14],4
same,Minimum inhibitory concentration,[1]; [15],4
same,Minimum inhibitory concentration,[1]; [16],2
same,Minimum inhibitory concentration,[1]; [17],4
same,Minimum inhibitory concentration,[2]; [18],16
same,Minimum inhibitory concentration,[2]; [19],16
same,Minimum inhibitory concentration,[2]; [20],16
same,Minimum inhibitory concentration,[2]; [21],8
same,Minimum inhibitory concentration,[2]; [22],8
same,Minimum inhibitory concentration,[3]; [23],8
same,Minimum inhibitory concentration,[3]; [24],8
same,Minimum inhibitory concentration,[3]; [25],16
same,Minimum inhibitory concentration,[3]; [26],16
same,Minimum inhibitory concentration,[3]; [27],4
same,Minimum inhibitory concentration,[4]; [28],>128
same,Minimum inhibitory concentration,[4]; [29],>128
same,Minimum inhibitory concentration,[4]; [30],128
same,Minimum inhibitory concentration,[4]; [31],>128
same,Minimum inhibitory concentration,[4]; [32],>128
same,Minimum inhibitory concentration,[5]; [33],4
same,Minimum inhibitory concentration,[5]; [34],8
same,Minimum inhibitory concentration,[5]; [35],4
same,Minimum inhibitory concentration,[5]; [36],4
same,Minimum inhibitory concentration,[5]; [37],4
same,Minimum inhibitory concentration,[6]; [38],4
same,Minimum inhibitory concentration,[6]; [39],4
same,Minimum inhibitory concentration,[6]; [40],4
same,Minimum inhibitory concentration,[6]; [41],2
same,Minimum inhibitory concentration,[6]; [42],2
same,Minimum inhibitory concentration,[7]; [43],2
same,Minimum inhibitory concentration,[7]; [44],2
same,Minimum inhibitory concentration,[7]; [45],2
same,Minimum inhibitory concentration,[7]; [46],2
same,Minimum inhibitory concentration,[7]; [47],2
same,Minimum inhibitory concentration,[8]; [48],>128
same,Minimum inhibitory concentration,[8]; [49],128
same,Minimum inhibitory concentration,[8]; [50],128
same,Minimum inhibitory concentration,[8]; [51],>128
same,Minimum inhibitory concentration,[8]; [52],>128
same,Minimum inhibitory concentration,[9]; [53],16
same,Minimum inhibitory concentration,[9]; [54],8
same,Minimum inhibitory concentration,[9]; [55],8
same,Minimum inhibitory concentration,[9]; [56],8
same,Minimum inhibitory concentration,[10]; [57],16
same,Minimum inhibitory concentration,[10]; [58],16
same,Minimum inhibitory concentration,[10]; [59],16
same,Minimum inhibitory concentration,[10]; [60],16
same,Minimum inhibitory concentration,[10]; [61],16
same,Minimum inhibitory concentration,[11],4
same,Minimum inhibitory concentration,[12]; [62],8
same,Minimum inhibitory concentration,[12]; [63],16
same,Minimum inhibitory concentration,[12]; [64],8
same,Minimum inhibitory concentration,[12]; [65],16
CC(C)C[C@@H](NC(=O)[C@@H](Cc1c[nH]c2ccccc12)NC(=O)[C@@H](Cc1ccccc1)NC(=O)[C@@H](Cc1c[nH]c2ccccc12)NC(=O)[C@@H](CCCCN)NC(=O)[C@@H](CCCNC(=N)N)NC(=O)[C@H](N)Cc1c[nH]c2ccccc12)C(=O)N[C@H](Cc1ccccc1)C(=O)N[C@H](CCCCN)C(=O)N[C@H](CCCCN)C(=O)N[C@H](CCCNC(=N)N)C(=O)O [Chain309D] (H-[dW][dR][dK][dW][dF][dW][dL][dF][dK][dK][dR]-OH),Minimum inhibitory concentration,[1]; [13],0.5
same,Minimum inhibitory concentration,[1]; [14],32
same,Minimum inhibitory concentration,[1]; [15],16
same,Minimum inhibitory concentration,[1]; [16],32
same,Minimum inhibitory concentration,[1]; [17],16
same,Minimum inhibitory concentration,[2]; [18],16
same,Minimum inhibitory concentration,[2]; [19],32
same,Minimum inhibitory concentration,[2]; [20],16
same,Minimum inhibitory concentration,[2]; [21],32
same,Minimum inhibitory concentration,[2]; [22],8
same,Minimum inhibitory concentration,[3]; [23],128
same,Minimum inhibitory concentration,[3]; [24],32
same,Minimum inhibitory concentration,[3]; [25],>128
same,Minimum inhibitory concentration,[3]; [26],32
same,Minimum inhibitory concentration,[3]; [27],128
same,Minimum inhibitory concentration,[4]; [28],>128
same,Minimum inhibitory concentration,[4]; [29],>128
same,Minimum inhibitory concentration,[4]; [30],>128
same,Minimum inhibitory concentration,[4]; [31],>128
same,Minimum inhibitory concentration,[4]; [32],>128
same,Minimum inhibitory concentration,[5]; [33],>128
same,Minimum inhibitory concentration,[5]; [34],128
same,Minimum inhibitory concentration,[5]; [35],64
same,Minimum inhibitory concentration,[5]; [36],64
same,Minimum inhibitory concentration,[5]; [37],32
same,Minimum inhibitory concentration,[6]; [38],64
same,Minimum inhibitory concentration,[6]; [39],64
same,Minimum inhibitory concentration,[6]; [40],64
same,Minimum inhibitory concentration,[6]; [41],64
same,Minimum inhibitory concentration,[6]; [42],64
same,Minimum inhibitory concentration,[7]; [43],8
same,Minimum inhibitory concentration,[7]; [44],16
same,Minimum inhibitory concentration,[7]; [45],8
same,Minimum inhibitory concentration,[7]; [46],8
same,Minimum inhibitory concentration,[7]; [47],8
same,Minimum inhibitory concentration,[8]; [48],>128
same,Minimum inhibitory concentration,[8]; [49],>128
same,Minimum inhibitory concentration,[8]; [50],>128
same,Minimum inhibitory concentration,[8]; [51],>128
same,Minimum inhibitory concentration,[8]; [52],>128
same,Minimum inhibitory concentration,[9]; [53],64
same,Minimum inhibitory concentration,[9]; [54],64
same,Minimum inhibitory concentration,[9]; [55],32
same,Minimum inhibitory concentration,[9]; [56],16
same,Minimum inhibitory concentration,[10]; [57],32
same,Minimum inhibitory concentration,[10]; [58],32
same,Minimum inhibitory concentration,[10]; [59],16
same,Minimum inhibitory concentration,[10]; [60],16
same,Minimum inhibitory concentration,[10]; [61],32
same,Minimum inhibitory concentration,[11],8
same,Minimum inhibitory concentration,[12]; [62],32
same,Minimum inhibitory concentration,[12]; [63],64
same,Minimum inhibitory concentration,[12]; [64],4
same,Minimum inhibitory concentration,[12]; [65],128
